This note sets out measurements from US8580794B2 (AbbVie Inc., priority 2009, dated 2013).

For one assay, the system named is RS4;11 cells. In words: RS4;11 Cell Viability Assay (CellTiter Glo).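 Further: RS4,11 acute lymphoblastic leukemia cells, viability as percent of untreated control cells, EC50 for loss of viable cells.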 The assay is classed as cell-based. The settings on record: 10% human serum. Background: In ATP-based viability assays light output follows the ATP content of the culture.
In the next assay the target is GST-Bc1-2 (Homo sapiens, UniProt P10415). Description: Time Resolved-Fluorescence Resonance Energy Transfer (TR-FRET) Bcl-2 binding assay with F-Bak peptide probe. On the technique in general: Time-resolved FRET reads energy transfer from a long-lived donor to a nearby acceptor.
GST-Bc1-2, sequence (P10415 whole entry): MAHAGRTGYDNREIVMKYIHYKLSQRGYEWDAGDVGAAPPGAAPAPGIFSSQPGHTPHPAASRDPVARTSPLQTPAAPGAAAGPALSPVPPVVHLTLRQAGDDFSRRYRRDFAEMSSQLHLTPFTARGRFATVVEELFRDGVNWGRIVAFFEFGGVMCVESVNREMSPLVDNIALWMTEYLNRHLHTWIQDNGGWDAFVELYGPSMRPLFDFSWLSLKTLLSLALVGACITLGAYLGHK
[1] abbreviates: GST-Bcl-2 1 nM, F-Bak probe 100 nM, Tb-anti-GST 1 nM, '<' = below limit of detection, read-out: TR-FRET Bcl-2 Binding Ki.
[2] abbreviates: Homo sapiens, RS4-11, 48 h, 50,000 cells per well.

Like-named read-outs stand apart in the source and are kept apart here. Some results are limits rather than exact numbers.

Procedure for RS4;11 cells: The acute lymphoblastic leukemia (ALL) cell line RS4;11 was used as the primary human cell line to assess the cellular activity of Bcl-2 selective agents in vitro and their efficacy in vivo.
Cell cytotoxicity EC50 values were assessed using CellTiter Glo (Promega) according to the manufacturer's recommendations. The EC50 values were determined as a percentage of viable cells following treatment compared to the untreated control cells.

For `CC1(C)CCC(CN2CCN(c3ccc(C(=O)NS(=O)(=O)c4cnc(OCC5CCC6(CC5)CNC(=O)O6)c(Cl)c4)c(Oc4cnc5[nH]ccc5c4)c3)CC2)=C(c2ccc(Cl)cc2)C1` (single isomer, unassigned) [Example 397, N-[(5-chloro-6-{[(5s,8s)-2-oxo-1-oxa-3-azaspiro[4.5]dec-8-yl]methoxy}pyridin-3-yl)sulfonyl]-4-(4-{[2-(4-chlorophenyl)-4,4-dimethylcyclohex-1-en-1-yl]methyl}piperazin-1-yl)-2-(1H-pyrrolo[2,3-b]pyridin-5-yloxy)benzamide], the EC50 in the assay with RS4;11 cells (50,000 cells per well, 48 hours) amounted to 113 nM. For the same compound, the Ki at GST-Bc1-2 (setting [1]) is 0.041 nM.

In the case of `CC1(C)CCC(CN2CCN(c3ccc(C(=O)NS(=O)(=O)c4cnc(NC5CCN(C6CCOCC6)CC5)c(Br)c4)c(Oc4cnc5[nH]ccc5c4)c3)CC2)=C(c2ccc(Cl)cc2)C1` [Example 61, N-({5-bromo-6-[(1-tetrahydro-2H-pyran-4-ylpiperidin-4-yl)amino]pyridin-3-yl}sulfonyl)-4-(4-{[2-(4-chlorophenyl)-4,4-dimethylcyclohex-1-en-1-yl]methyl}piperazin-1-yl)-2-(1H-pyrrolo[2,3-b]pyridin-5-yloxy)benzamide], the EC50 in the assay on RS4;11 cells (setting [2]) was 183 nM. The Ki at GST-Bc1-2 (setting [1]) came to 0.091 nM.

On to `O=C(NS(=O)(=O)c1ccc(NCC2CCOCC2)c([N+](=O)[O-])c1)c1ccc(N2CCN(Cc3ccccc3-c3ccc(Cl)cc3)CC2)cc1Oc1ccc2[nH]ccc2c1` [Example 87, 4-{4-[(4′-chloro-1,1′-biphenyl-2-yl)methyl]piperazin-1-yl}-2-(1H-indol-5-yloxy)-N-({3-nitro-4-[(tetrahydro-2H-pyran-4-ylmethyl)amino]phenyl}sulfonyl)benzamide], for which the EC50 with RS4;11 cells (setting [2]) is 1180 nM. Moreover, the Ki at GST-Bc1-2 (setting [1]) and on GST-Bc1-2 (read-out: Bcl-2 FRET ki) was 0.618 nM in each case.

`CC1(C)CCC(CN2CCN(c3ccc(C(=O)NS(=O)(=O)c4ccc(NN5CCS(=O)(=O)CC5)c([N+](=O)[O-])c4)c(Oc4cnc5[nH]ccc5c4)c3)CC2)=C(c2ccc(Cl)cc2)C1` [Example 107, Trans-4-(4-{[2-(4-chlorophenyl)-4,4-dimethylcyclohex-1-en-1-yl]methyl}piperazin-1-yl)-N-({4-[(1,1-dioxidothiomorpholin-4-yl)amino]-3-nitrophenyl}sulfonyl)-2-(1H-pyrrolo[2,3-b]pyridin-5-yloxy)benzamide]: the response in the assay on RS4;11 cells (setting [2]) was half-maximal at 61.2 nM (EC50). For the same compound, the Ki on GST-Bc1-2 (setting [1]) is 0.035 nM.

For the compound `CC1(C)CCC(CN2CCN(c3ccc(C(=O)NS(=O)(=O)c4ccc(N[C@@H]5CCN(CCF)C5)c([N+](=O)[O-])c4)c(Oc4cnc5[nH]ccc5c4)c3)CC2)=C(c2ccc(Cl)cc2)C1` [Example 183, 4-(4-{[2-(4-chlorophenyl)-4,4-dimethylcyclohex-1-en-1-yl]methyl}piperazin-1-yl)-N-[(4-{[(3R)-1-(2-fluoroethyl)pyrrolidin-3-yl]amino}-3-nitrophenyl)sulfonyl]-2-(1H-pyrrolo[2,3-b]pyridin-5-yloxy)benzamide], the EC50 in the assay with RS4;11 cells (setting [2]) was found to be 17.5 nM. In addition, the Ki at GST-Bc1-2 (setting [1]) is < 0.01 nM.

`COC(=O)[C@H]1CC[C@H](CNc2ccc(S(=O)(=O)NC(=O)c3ccc(N4CCN(CC5=C(c6ccc(Cl)cc6)CC(C)(C)CC5)CC4)cc3Oc3cnc4[nH]ccc4c3)cc2[N+](=O)[O-])CC1` [Example 379, methyl trans-4-{[(4-{[4-(4-{[2-(4-chlorophenyl)-4,4-dimethylcyclohex-1-en-1-yl]methyl}piperazin-1-yl)-2-(1H-pyrrolo[2,3-b]pyridin-5-yloxy)benzoyl]sulfamoyl}-2-nitrophenyl)amino]methyl}cyclohexanecarboxylate] gave an EC50 with RS4;11 cells (setting [2]) of 19.4 nM. Further, the Ki on GST-Bc1-2 (setting [1]) is < 0.01 nM.

The compound `CC1(C)CCC(CN2CCN(c3ccc(C(=O)NS(=O)(=O)c4ccc(NC[C@H]5CC[C@H](C(=O)O)CC5)c([N+](=O)[O-])c4)c(Oc4cnc5[nH]ccc5c4)c3)CC2)=C(c2ccc(Cl)cc2)C1` [Example 380, trans-4-{[(4-{[4-(4-{[2-(4-chlorophenyl)-4,4-dimethylcyclohex-1-en-1-yl]methyl}piperazin-1-yl)-2-(1H-pyrrolo[2,3-b]pyridin-5-yloxy)benzoyl]sulfamoyl}-2-nitrophenyl)amino]methyl}cyclohexanecarboxylic acid] yielded an EC50 in the assay on RS4;11 cells (setting [2]) of 134 nM. Also, the Ki on GST-Bc1-2 (setting [1]) was < 0.01 nM.

`CC1(C)CCC(CN2CCN(c3ccc(C(=O)NS(=O)(=O)c4ccc(NC(=O)N5CCC(C#N)CC5)c([N+](=O)[O-])c4)c(Oc4cnc5[nH]ccc5c4)c3)CC2)=C(c2ccc(Cl)cc2)C1` [Example 381, N-(4-{[4-(4-{[2-(4-chlorophenyl)-4,4-dimethylcyclohex-1-en-1-yl]methyl}piperazin-1-yl)-2-(1H-pyrrolo[2,3-b]pyridin-5-yloxy)benzoyl]sulfamoyl}-2-nitrophenyl)-4-cyanopiperidine-1-carboxamide] displayed an EC50 in the assay with RS4;11 cells (setting [2]) of 1.41 nM. Also, on GST-Bc1-2 (setting [1]), the Ki was < 0.01 nM.

Compound `COC[C@H]1CC[C@@H](CNc2ccc(S(=O)(=O)NC(=O)c3ccc(N4CCN(CC5=C(c6ccc(Cl)cc6)CC(C)(C)CC5)CC4)cc3Oc3cnc4[nH]ccc4c3)cc2[N+](=O)[O-])CC1` [Example 382, 4-(4-{[2-(4-chlorophenyl)-4,4-dimethylcyclohex-1-en-1-yl]methyl}piperazin-1-yl)-N-{[4-({[cis-4-(methoxymethyl)cyclohexyl]methyl}amino)-3-nitrophenyl]sulfonyl}-2-(1H-pyrrolo[2,3-b]pyridin-5-yloxy)benzamide] displayed an EC50 in the assay on RS4;11 cells (setting [2]) of 27 nM. Further, at GST-Bc1-2 (setting [1]), the Ki was < 0.01 nM.

In turn, `COC[C@H]1CC[C@H](CNc2ccc(S(=O)(=O)NC(=O)c3ccc(N4CCN(CC5=C(c6ccc(Cl)cc6)CC(C)(C)CC5)CC4)cc3Oc3cnc4[nH]ccc4c3)cc2[N+](=O)[O-])CC1` [Example 383, 4-(4-{[2-(4-chlorophenyl)-4,4-dimethylcyclohex-1-en-1-yl]methyl}piperazin-1-yl)-N-{[4-({[trans-4-(methoxymethyl)cyclohexyl]methyl}amino)-3-nitrophenyl]sulfonyl}-2-(1H-pyrrolo[2,3-b]pyridin-5-yloxy)benzamide] gave an EC50 in the assay on RS4;11 cells (setting [2]) of 12.4 nM. Further, the Ki at GST-Bc1-2 (setting [1]) is < 0.01 nM.

Take `CC1(C)CCC(CN2CCN(c3ccc(C(=O)NS(=O)(=O)c4ccc5c(c4)nnn5CC4CCOCC4)c(Oc4cnc5[nH]ccc5c4)c3)CC2)=C(c2ccc(Cl)cc2)C1` [Example 384, 4-(4-{[2-(4-chlorophenyl)-4,4-dimethylcyclohex-1-en-1-yl]methyl}piperazin-1-yl)-2-(1H-pyrrolo[2,3-b]pyridin-5-yloxy)-N-{[1-(tetrahydro-2H-pyran-4-ylmethyl)-1H-benzotriazol-5-yl]sulfonyl}benzamide]: the EC50 with RS4;11 cells (setting [2]) is > 1000 nM. Moreover, at GST-Bc1-2 (setting [1]), the Ki worked out at 0.704 nM.

Regarding `CC1(C)CCC(CN2CCN(c3ccc(C(=O)NS(=O)(=O)c4cnc(OCC5CCC6(CC5)CNC(=O)O6)c(Cl)c4)c(Oc4cnc5[nH]ccc5c4)c3)CC2)=C(c2ccc(Cl)cc2)C1` (centres unmarked) [Example 385, N-({5-chloro-6-[(2-oxo-1-oxa-3-azaspiro[4.5]dec-8-yl)methoxy]pyridin-3-yl}sulfonyl)-4-(4-{[2-(4-chlorophenyl)-4,4-dimethylcyclohex-1-en-1-yl]methyl}piperazin-1-yl)-2-(1H-pyrrolo[2,3-b]pyridin-5-yloxy)benzamide], in the assay on RS4;11 cells (setting [2]), the midpoint of the response, the EC50, lay at 133 nM. Besides, the Ki at GST-Bc1-2 (setting [1]) is < 0.01 nM.

The compound `COC1CCN(C(=O)Nc2ccc(S(=O)(=O)NC(=O)c3ccc(N4CCN(CC5=C(c6ccc(Cl)cc6)CC(C)(C)CC5)CC4)cc3Oc3cnc4[nH]ccc4c3)cc2[N+](=O)[O-])CC1` [Example 386, N-(4-{[4-(4-{[2-(4-chlorophenyl)-4,4-dimethylcyclohex-1-en-1-yl]methyl}piperazin-1-yl)-2-(1H-pyrrolo[2,3-b]pyridin-5-yloxy)benzoyl]sulfamoyl}-2-nitrophenyl)-4-methoxypiperidine-1-carboxamide] registered an EC50 with RS4;11 cells (setting [2]) of 8.38 nM. Further, the Ki at GST-Bc1-2 (setting [1]) is < 0.01 nM.

Consider `Cc1nc2c(s1)CC(COc1ncc(S(=O)(=O)NC(=O)c3ccc(N4CCN(CC5=C(c6ccc(Cl)cc6)CC(C)(C)CC5)CC4)cc3Oc3cnc4[nH]ccc4c3)cc1Cl)CC2` (centres unmarked) [Example 387], for which the EC50 with RS4;11 cells (setting [2]) was found to be 911 nM. The Ki on GST-Bc1-2 (setting [1]) was < 0.01 nM.

On to `CC1(C)CCC(CN2CCN(c3ccc(C(=O)NS(=O)(=O)c4cnc5c(ccn5CC5CCOCC5)c4)c(Oc4cnc5[nH]ccc5c4)c3)CC2)=C(c2ccc(Cl)cc2)C1` [Example 388, 4-(4-{[2-(4-chlorophenyl)-4,4-dimethylcyclohex-1-en-1-yl]methyl}piperazin-1-yl)-2-(1H-pyrrolo[2,3-b]pyridin-5-yloxy)-N-{[1-(tetrahydro-2H-pyran-4-ylmethyl)-1H-pyrrolo[2,3-b]pyridin-5-yl]sulfonyl}benzamide], for which the EC50 in the assay with RS4;11 cells (setting [2]) was > 1000 nM. Moreover, the Ki at GST-Bc1-2 (setting [1]) is 0.812 nM.

`CC1(C)CCC(CN2CCN(c3ccc(C(=O)NS(=O)(=O)c4cnc5c(c4)c(Cl)cn5CC4CCOCC4)c(Oc4cnc5[nH]ccc5c4)c3)CC2)=C(c2ccc(Cl)cc2)C1` [Example 389, 4-(4-{[2-(4-chlorophenyl)-4,4-dimethylcyclohex-1-en-1-yl]methyl}piperazin-1-yl)-N-{[3-chloro-1-(tetrahydro-2H-pyran-4-ylmethyl)-1H-pyrrolo[2,3-b]pyridin-5-yl]sulfonyl}-2-(1H-pyrrolo[2,3-b]pyridin-5-yloxy)benzamide]: the EC50 in the assay on RS4;11 cells (setting [2]) was found to be 733 nM. Besides, the Ki on GST-Bc1-2 (setting [1]) stood at 0.774 nM.

In the case of `COCC1(C)CCC(CN2CCN(c3ccc(C(=O)NS(=O)(=O)c4ccc(NCC5CCOCC5)c([N+](=O)[O-])c4)c(Oc4cnc5[nH]ccc5c4)c3)CC2)=C(c2ccc(Cl)cc2)C1` (centres unmarked) [Example 390, 4-(4-{[2-(4-chlorophenyl)-4-(methoxymethyl)-4-methylcyclohex-1-en-1-yl]methyl}piperazin-1-yl)-N-({3-nitro-4-[(tetrahydro-2H-pyran-4-ylmethyl)amino]phenyl}sulfonyl)-2-(1H-pyrrolo[2,3-b]pyridin-5-yloxy)benzamide], the EC50 in the assay with RS4;11 cells (setting [2]) worked out at 5.06 nM. Also, the Ki on GST-Bc1-2 (setting [1]) was < 0.01 nM.

As usually defined, the EC50 is the concentration that produces a half-maximal response. As a reminder, the Ki is the equilibrium dissociation constant of an inhibitor or competing ligand from its target.
